This note sets out measurements from article PMC12077799, “Fragment-based drug discovery for transthyretin kinetic stabilisers using a novel capillary zone electrophoresis method” (PLOS One, 2025).

The target of assay [1] is T1, Human transthyretin (TTR) (Homo sapiens, UniProt P02766).
T1 construct: purchased SCIPAC (Sittingbourne, Kent, UK) P171-1
The experiment in a line: Co-crystallisation of TTR-ligand complex, X-ray hit confirmation. The note with it: fragment seen in ligand-omitted difference density at >= 2σ in one or both binding sites; full or partial density. It is filed as binding. The procedure: Crystals were grown by vapor diffusion using a published crystallisation cocktail (100 mM HEPES pH 7.5, 200 mM CaCl2, 28% v/v PEG400) at 21 °C [29]. The hanging drop contained 1 μL of crystallisation cocktail, 1 μL of diluted ligand and 1 μL of TTR protein solution (85 μM). […] Crystals were harvested and flash cooled in a N2 cryostream or dipped into liquid ethane without cryoprotectant. Data was collected at Diamond Light Source (Oxon, UK) beamline I24, I04 or I04-1 (Pilatus 6M or ADSC Q315) or the European Synchrotron Radiation Facility (ESRF, Grenoble, France) beamline ID29 (Pilatus 6M-F) or in-house (Bruker X8 Diffractometer with APEXII CCD detector). Crystal unit cell was initially indexed by software MOSFLM [30] and LABELIT [31] within the EDNA [32] automatic data processing workflow. Diffraction image integration was performed by XDS [33] and reflection intensities were scaled by SCALA [34] or by PROTEUM2 if collected in-house. Phases were obtained by molecular replacement method using PHASER [35], 1DVQ from the Protein Data Bank (PDB) was used as the search model. Atomic positions of the initial model were refined by REFMAC5 [36]. Model building and ligand fitting was completed using COOT [37]. Model graphics were generated using CCP4MG [38]. Crystallographic statistics of all structures can be found in S4 Table.

The target of a further assay is T2, TTR (Homo sapiens, UniProt P02766).
T2 construct: purchased SCIPAC (Sittingbourne, Kent, UK) P171-1
The experiment in a line: Induced near-UV circular dichroism of ligand on TTR binding. The note with it: induced CD signal 280–320 nm, TTR 13.62 μM. The procedure: CD experiments were conducted in Diamond Light Source (Oxon, UK) beamline B23 installed with an Olis™ DSM 20 CD spectrophotometer. CD Buffer (10 mM Tris-HCl, 5 mM NaCl, pH 8.0) was prepared and loaded (450 μL) into a UV cuvette (10 mm path length). The near-UV (260–380 nm) CD spectrum of the solution was measured. 1 μL of SFL001535 10 mM DMSO stock was added into the cuvette and mixed by inversion. The CD spectrum of this solution was measured again. Contents of the cuvette containing SFL001535 in buffer were removed and the cuvette was washed with nitric acid. CD Buffer containing 13.62 μM of TTR was loaded into the cuvette and the near-UV CD spectrum of TTR was obtained (measured 10 times). A total of 8 μL of SFL001535 10 mM stock was added to the solution in 4 step additions (1 + 1 + 2 + 4 μL) and the CD spectrum were measured after each addition. The induced CD of SFL001535 was calculated by subtracting the CD spectrum of TTR alone.
On the technique in general: CD spectra are sensitive to the conformation of chiral molecules.

The structures appear in SMILES notation.

Take `c1ccc2c(-c3cn[nH]c3)ccnc2c1` [SFL001535, 4-(3H-pyrazol-4-yl)quinoline]: the “Confirmed by X-ray” value in assay [1] was “Yes 9H7I”. Further, the “binding to TTR by induced CD” value at TTR is recorded as “confirmed”.
